PubChem BioAssay AID1053164 (Broad Institute, 2014)
Values joined by “and” are separate entries in the source; they are usually repeats but may differ in a detail not shown here. Identical values can stand only once. Active and inactive are the calls of the source. No rule for the calls is given here.

Target: Dihydrolipoyl dehydrogenase (Mycobacterium tuberculosis (strain ATCC 25618 / H37Rv)) (UniProt P9WHH9)
Assay: Purified Mycobacterium tuberculosis Lpd inhibitors, DTNB colorimetric coupled assay, confirmatory IC50 (AID 1053164)
Details: Purified M. tb Lpd, DTNB colorimetric plate reader

Row | SMILES | IC50
1 | CO[C@H]1CC[C@H]2CCN(C)C(=O)[C@@H](C)N(C)C(=O)c3cccc(C#N)c3OC[C@@H]1O2 | 6 µM and > 100 µM (inactive)
2 | CO[C@H]1CC[C@H]2CCN(C)C(=O)[C@@H](C)N(C)C(=O)c3cccnc3OC[C@@H]1O2 | > 100 µM (inactive)
3 | CO[C@H]1CC[C@H]2CCN(C)C(=O)CCCN(C)C(=O)c3cc(Cl)cnc3OC[C@@H]1O2 | > 100 µM (inactive)
4 | CO[C@H]1CC[C@H]2CC(=O)N(C)CCN(C)C(=O)c3cccc(C#N)c3OC[C@@H]1O2 | > 100 µM (inactive)
5 | CO[C@H]1CC[C@H]2CCN(C)C(=O)[C@@H](C)N(C)C(=O)c3c(C(F)(F)F)ccnc3OC[C@@H]1O2 | > 100 µM (inactive)
6 | CO[C@H]1CC[C@H]2CCN(C)C(=O)CN(C)C(=O)c3cccc(C#N)c3OC[C@@H]1O2 | > 100 µM (inactive)
7 | CO[C@H]1CC[C@H]2CCN(C)C(=O)[C@@H](C(C)C)N(C)C(=O)c3cccc(C#N)c3OC[C@@H]1O2 | > 100 µM (inactive)
8 | CO[C@H]1CC[C@H]2CCN(C)C(=O)[C@@H](Cc3ccccc3)N(C)C(=O)c3cccc(C#N)c3OC[C@@H]1O2 | > 100 µM (inactive)
9 | CO[C@H]1CC[C@H]2CCN(C)C(=O)[C@@H](C)N(C)C(=O)c3cc(Cl)cnc3OC[C@@H]1O2 | 25 µM
10 | CCCC[C@@H]1C(=O)N(C)CC[C@@H]2CC[C@H](OC)[C@H](COc3c(C#N)cccc3C(=O)N1C)O2 | > 100 µM (inactive)
11 | CO[C@H]1CC[C@H]2CCN(C)C(=O)CCCN(C)C(=O)c3cccc(C#N)c3OC[C@@H]1O2 | > 100 µM (inactive)
12 | CO[C@H]1CC[C@H]2CCN(C)C(=O)CCN(C)C(=O)c3cccc(C#N)c3OC[C@@H]1O2 | > 100 µM (inactive)
13 | CO[C@H]1CC[C@H]2CCN(C)C(=O)[C@@H](c3ccccc3)N(C)C(=O)c3cccc(C#N)c3OC[C@@H]1O2 | > 100 µM (inactive)
14 | CO[C@H]1CC[C@H]2CCN(C)C(=O)CCCN(C)C(=O)c3cccnc3OC[C@@H]1O2 | > 100 µM (inactive)
15 | CO[C@H]1CC[C@H]2CCN(C)C(=O)[C@@H](C)N(C)C(=O)c3ccc(F)nc3OC[C@@H]1O2 | > 100 µM (inactive)
16 | CO[C@H]1CC[C@H]2CCN(C)C(=O)[C@H]3CCCN3C(=O)c3cccc(C#N)c3OC[C@@H]1O2 | > 100 µM (inactive)
